Values quoted from earlier work, collected in article PMC7113793 (Antiviral Research, 2017).

Legend:
[1] = molecular target: Citrullus vulgaris urease; conditions: read-out: Kis
[2] = molecular target: Giardia lamblia carbamate kinase
aldehyde dehydrogenase = conditions: in vivo

SMILES: O=C(O)CN(CCN(CC(=O)O)CC(=O)O)CC(=O)O [EDTA]
- loss of PL^pro activity (PL^pro): 62%

SMILES: CCN(CC)C(=S)SSC(=S)N(CC)CC [disulfiram]
- Ki [1]: 67.6 µM
- IC50 [2]: 0.6 to 1.4 µM
- enzyme inhibition as compared to the activity of the control (aldehyde dehydrogenase): 77%
